Measured values published in ChEMBL document CHEMBL2069300 (J Med Chem, 2012).
In brackets after ≈: the same amount, converted by molar mass.

What was measured:
[1] = Aqueous solubility of the compound in phosphate buffered saline at pH 7.4; type: physicochemical; settings: buffer
[2] = Stability of the compound in water at neutral pH after 24 hrs; type: physicochemical; settings: buffer

Row | SMILES | solubility [1] [µM] | Stability [2]
1 | COc1ccc(OC)c(S(=O)(=O)ON2C(=O)c3ccccc3C2=O)c1 | 453.9 (≈ 165 µg/mL) | 
2 | Nc1nc2ccc(S(=O)(=O)N3CCCCC3)cc2s1 | 338.8 (≈ 101 µg/mL) | 
3 | CCc1ccc(S(=O)(=O)ON2C(=O)c3ccccc3C2=O)cc1 | 462 (≈ 153 µg/mL) | 
4 | COC(=O)c1ccc2c(c1)C(C)(C)C(/C=C/c1ccc(O)cc1)=[N+]2C | 218.7 | 
5 | Cc1cccc(N2COc3ccc4ccccc4c3C2)c1 | 377.4 (≈ 104 µg/mL) | 
6 | CCOc1ccc(/C=C/C2=[N+](C)c3ccc(C(=O)OC)cc3C2(C)C)cc1 | 0.7 | 
7 | COC(=O)c1ccc(/C=C/C2=[N+](C)c3ccc(OC)cc3C2(C)C)cc1 | 0.2 | 
8 | CCCS(=O)(=O)c1oc(-c2cccs2)nc1S(=O)(=O)c1ccc(F)cc1 | 21.9 (≈ 9.1 µg/mL) | 
9 | CCS(=O)(=O)c1oc(-c2cccs2)nc1S(=O)(=O)c1ccccc1 | 49.9 (≈ 19.1 µg/mL) | 
10 | CC(C)CS(=O)(=O)c1oc(-c2cccs2)nc1S(=O)(=O)c1ccc(F)cc1 | 17.6 (≈ 7.56 µg/mL) | 
11 | CC(C)S(=O)(=O)c1oc(-c2cccs2)nc1S(=O)(=O)c1ccccc1 | 34.2 (≈ 13.6 µg/mL) | 
12 | Cc1c(C=O)c(C(=O)O)c(C)n1Cc1ccc(Cl)cc1 | 576 (≈ 168 µg/mL) | 
13 | O=Cc1nc2ccccc2n1Cc1ccc2ccccc2c1 | 42.1 (≈ 12.1 µg/mL) | 
14 | O=Cc1nc2ccccc2n1Cc1ccc(Cl)cc1Cl | 15.3 (≈ 4.67 µg/mL) | 
15 | COCC(=O)Oc1c(Sc2ccc(Cl)cc2)c(C)nn1-c1ccccc1 | 493 (≈ 192 µg/mL) | 
16 | CCCCNC(=O)Cn1sc2nc(C)cc(C)c2c1=O | 487 (≈ 143 µg/mL) | 
17 | COc1ccc(/C=C/C2=[N+](C)c3ccc(OC)cc3C2(C)C)cc1 | 273.3 | 
18 | COC(=O)c1ccc2c(c1)C(C)(C)C(/C=C/c1ccc(OC)cc1)=[N+]2C | 0.1 | 
19 | Cc1[nH]c2ccccc2c1C(Nc1ccccc1)c1ccccc1 (centres undefined) |  | Stable

Row | SMILES | solubility [1] [µM] | Stability [2]
20 | Cc1[nH]c2ccccc2c1C(Nc1ccccc1)c1ccc(Cl)cc1 (centres undefined) |  | Stable
21 | COc1ccc(C(Nc2ccccc2)c2c(C)[nH]c3ccccc23)cc1 (centres undefined) |  | Stable
22 | Cc1ccc(C(Nc2ccccc2)c2c(C)[nH]c3ccccc23)cc1 (centres undefined) |  | Stable
23 | Cc1[nH]c2ccccc2c1C(Nc1ccccc1)c1ccc(N(C)C)cc1 (centres undefined) |  | Stable
24 | Cc1[nH]c2ccccc2c1C(Nc1ccccc1)c1ccc([N+](=O)[O-])cc1 (centres undefined) |  | Stable
25 | Cc1[nH]c2ccccc2c1C(C)Nc1ccccc1 (centres undefined) |  | Stable
26 | Cc1[nH]c2ccccc2c1C(Nc1ccccc1)c1ccc2ccccc2c1 (centres undefined) |  | Stable
27 | Cc1[nH]c2ccccc2c1C(Nc1ccccc1)c1ccc(CCCO)cc1 (centres undefined) | 503.4 (≈ 187 µg/mL) | Stable
28 | Cc1[nH]c2ccccc2c1C(Nc1ccccc1)c1ccccc1Cl (centres undefined) |  | Stable
29 | Cc1[nH]c2ccccc2c1C(Nc1ccc(Cl)cc1)c1ccccc1Cl (centres undefined) |  | Stable
30 | COc1ccc(NC(c2ccccc2Cl)c2c(C)[nH]c3ccccc23)cc1 (centres undefined) |  | Stable
31 | Cc1ccc(NC(c2ccccc2Cl)c2c(C)[nH]c3ccccc23)cc1 (centres undefined) |  | Stable
32 | Cc1[nH]c2ccccc2c1C(Nc1ccc(N(C)C)cc1)c1ccccc1Cl (centres undefined) |  | Stable
33 | Cc1[nH]c2ccccc2c1C(Nc1ccc([N+](=O)[O-])cc1)c1ccccc1Cl (centres undefined) |  | Stable
34 | Cc1[nH]c2ccccc2c1C(Nc1ccc(C(F)(F)F)cc1)c1ccccc1Cl (centres undefined) |  | Stable
35 | COc1ccccc1NC(c1ccccc1Cl)c1c(C)[nH]c2ccccc12 (centres undefined) |  | Stable
36 | Cn1cc(C(Nc2ccccc2)c2ccccc2Cl)c2ccccc21 (centres undefined) |  | Stable
37 | Clc1ccccc1C(Nc1ccccc1)c1c[nH]c2ccccc12 (centres undefined) |  | Stable
38 | Cc1[nH]c2ccccc2c1C(Sc1ccccc1)c1ccccc1Cl (centres undefined) |  | Stable
